From patent US20120121574A1, “ANTIMICROBIAL, ANTIVIRAL, ANTICANCER AND IMMUNOMODULATORY PEPTIDES AND USES THEREFORE” (priority 2010, published 2012)
Where no end group is shown, it is not given here.

What was measured:
[1] = system: Human monocytes; assay: in vitro immunomodulatory activity on human monocytes; type: cell-based; settings: 10 micrograms/ml, 18 hr, ELISA
Experimental: Human monocytes or PMN (both 10×10^6/ml) were incubated in RPMI 1640 plus 10% FCS for 18 hr or 6 hr respectively in the presence or in the absence (NS) of LPS, negative control (NC) and peptides (all 10 micrograms/ml). After incubation culture supernatants were collected and tested for cytokines production by specific ELISA. […] Monocytes were incubated for 30 minutes in presence or absence (NS) of NC or N10K (both 10 micrograms/ml) or Cytochalasin D (30 μM). After incubation cells have been stimulated for 30 minutes with non opsonized h.i. […] The percentage of phagocytosis (FIG. 18A) and the medium number of yeast particles adhered or ingested by each monocyte (phagocytic index) (FIG. 18B) have been determined by cytofluorimetric analysis. […] PBMC have been incubated 30 minutes in presence or absence (NS) of NC or N10K (both 10 micrograms/ml). After incubation PBMC have been stimulated for 18 h with LPS (10 micrograms/ml) or h.i. […] The levels of IL-12p40 and IL-6 have been evaluated in the supernatants by ELISA Kit.
After incubation culture supernatants were collected and tested for cytokines production by specific ELISA. […]

[2] = system: C. albicans SC5314 strain
Experimental: In vitro activity of N10K against C. albicans SC5314 strain. The candidacidal activity of N10K peptide against C. albicans was assessed by a conventional colony forming unit (CFU) assay as previously described (Polonelli et al., 2003; Manfredi et al., 2005). Briefly, cells of C. albicans SC5314 were incubated at 37° C. for 6 hours (hr) in the presence of N10K at the concentration indicated of 20, 12.5 or 6.25 microgram/ml, or in distilled water as control (C). After incubation, cell suspensions were plated on Sabouraud dextrose agar and incubated at 30° C. for 48 hours when CFU were counted (** P<0.01 for N10K treated versus untreated cells, by t test). […]
The alanine-substituted derivatives (asd), defined according to the position held by the alanine-substituted aminoacid, were tested against C. albicans by a conventional colony forming unit (CFU) as previously described (Polonelli et al., 2003). Briefly, cells of C. albicans SC5314 were incubated at 37° C. for 6 hours in the presence of N10K or N10K asd at different scalar concentrations or distilled water as control. After incubation, cell suspensions were plated on Sabouraud dextrose agar and incubated at 30° C. for 48 hours when CFU were counted. Based on several independent replications, the EC50 value of each peptide was calculated by nonlinear regression analysis using Graph Pad Prism 4.01 software, San Diego, Calif., USA. […]
In vitro microbicidal activity of N10K derivative with 2 amino acid substitutions, or 80% sequence identity with native N10K, namely peptide Seq Id. No. 25 was tested against Candida albicans SC5314 as determined by Colony Forming Unit assay.

[3] = system: E. coli ATCC 25922 strain; assay: CFU assay against E. coli; type: cell-based, Escherichia coli
[4] = system: S. aureus 29213 strain; assay: CFU assay against S. aureus; type: cell-based, Staphylococcus aureus
Experimental: (§1) In vitro activity of N10K against S. aureus 29213 strain. The microbicidal activity of N10K peptide against S. aureus has been evaluated by a conventional CFU assay. Cells of S. aureus 29213 have been incubated at 37° C. for 5 hours in the presence of N10K at the concentration of 50, 45 or 40 micrograms/ml, or in distilled water as control growth. After the incubation period, the cell suspensions have been plated on Mueller Hinton agar, then incubated at 37° C. and observed for CFU enumeration after 24 hours.
as §1, with “T11F” for “N10K”, “bactericidal” for “microbicidal”, “40” for “45”, “30” for “40”
In vitro activity of H4L against S. aureus 29213 strain. The bactericidal activity of H4L peptide against S. aureus has been evaluated by a conventional CFU) assay. […]
In vitro activity of MoA VHCDR3 against S. aureus 29213 strain. The microbicidal activity of MoA VHCDR3 peptide against S. aureus has been evaluated by a conventional CFU assay. […]

[5] = system: A. fumigatus 1163 strain; assay: CFU assay against A. fumigatus conidia; type: cell-based, Aspergillus fumigatus
Experimental: After the incubation period, the conidial suspensions have been plated on Sabouraud dextrose agar, then incubated at 30° C. and observed for CFU enumeration after 48 hours.
After the incubation period, the cell suspensions have been plated on Sabouraud dextrose agar, then incubated at 30° C. and observed for CFU enumeration after 48 hours.

[6] = system: C. albicans cells; assay: direct candidacidal activity in vitro (strain not stated); type: cell-based, Candida albicans
[7] = system: P. aeruginosa ATCC 25853 strain; assay: CFU assay against P. aeruginosa; type: cell-based, Pseudomonas aeruginosa
[8] = system: peritoneal murine macrophages (PM); assay: in vitro immunomodulatory activity on murine peritoneal macrophages (PM); type: cell-based, mouse
Experimental: In vitro immunomodulatory activity of MoA VHCDR3 on murine immune cells. FIGS. 47-51 are graphs showing TNF-α and IL-6 production by PM and PMN stimulated with MoA CDRs and mouse MoA VHCDR3 uptake by different cell populations. Cells were cultured in the presence or absence (NS) of human and/or mouse CDRs, lipopolisaccharide (LPS), or negative control peptide (NC) (all 10 micrograms/ml) for 18 hr. Both PM and PMN cell populations were 5×10^6/ml. After incubation, TNF-α and IL-6 levels were evaluated in culture supernatants by specific ELISA assays (* P<0.05 treated vs untreated cells, n=7). In FIG. 51, dendritic cells (DC), PM, PMN, and T cells (all 1×10^6/ml) were incubated for 1 hr in the presence or absence (NS) of biotinylated (b)-MoA VHCDR3 or b-NC (both 10 micrograms/ml). After incubation, permeabilized cells were reacted with FITC-labelled mAb to biotin (b) and analyzed by FACScan flow cytometry. Data are reported as the percentage of positive cells *, P<0.05 (b-VHCDR3 treated vs untreated cells, n=5). Error bars, s.e.m. FIGS. 52A and B show graphs and colored cell staining micrograph of kinetic of VHCDR3 uptake by PM. PM (1×10^6/ml) were incubated for different times with b-VHCDR3 or b-NC (all 10 micrograms/ml). After incubation, permeabilized cells were reacted with FITC-labelled mAb to biotin and analyzed by FACScan flow cytometry. Data are reported as the mean fluorescence intensity (MFI) and percentage of positive cells (FIG. 52A) (* P<0.05 b-VHCDR3-treated vs untreated cells, n=7). Error bars, s.e.m. In selected experiments, cells were incubated for 1 hr as above described, reacted with FITC-labelled mAb to biotin in the presence of Evans' Blue as a counter stain, and subsequently examined under fluorescent light microscopy (FIG. 52B). Note the green fluorescence of b-VHCDR3 treated cells. Original magnification 20×. In FIGS. 53 and 54 is shown the phospho-Akt activation and TNF-α production in PM stimulated with MoA VHCDR3. PM (3×10^6/ml) were stimulated for 1 hr in the presence or absence (NS) of MoA VHCDR3, LPS, an irrelevant control peptide (NC) or a scrambled peptide (SP) (all 10 micrograms/ml). After incubation, cell lysates were subjected to Western blotting. Membranes were incubated with Abs to pAkt and Akt; pAkt was normalized against Akt (FIG. 53)*, P<0.05 (treated vs untreated cells, n=5). […] PM (5×10^6/ml) were stimulated for 18 hr as above described. After incubation, TNF-α level was evaluated in culture supernatants by specific ELISA assays. (FIG. 54)*, P<0.05 (treated vs untreated cells, n=5). In FIGS. 55 and 56 is shown the phospho-IkBα activation and TNF-α gene expression in PM stimulated with MoA VHCDR3. PM (3×10^6/ml) were stimulated for 1 hr in the presence or absence (NS) of wortmannin (4 nM), MoA VHCDR3, LPS or NC (all 10 micrograms/ml). After incubation, cell lysates were subjected to Western blotting. Membranes were incubated with Abs to pIkBα and IkBα; pIkBα was normalized against IkBα. (FIG. 55)*, P<0.05 (treated versus untreated cells, n=5); †, P<0.05 (wortmannin-treated vs wortmannin-untreated cells, n=5). For testing the expression level of TNF-α gene, PM (1×10^6/ml) were cultured for 1, 6 and 18 hr as above described. After incubation, total RNA was isolated and analyzed for mRNA expression with RT-PCR (FIG. 56). Transcript copy numbers were determined by qPCR using cDNA as a template. Copy numbers were normalized against the copy number of the GADPH gene (B). […]

[9] = system: C. albicans CA-6 strain; assay: murine model of systemic candidiasis; type: in vivo, Balb/c mice
Experimental: CFU recovery from the kidneys of mice was determined 7 and 12 days after fungal infection.
Mice were infected intravenously with the opportunistic fungus C. albicans and treated with mouse VHCDR3 or VLCDR3 (used as a negative control) intraperitoneally 4 hr before (200 micrograms), and 1 (100 micrograms) and 2 (100 micrograms) days after infection. Animal survival and fungal burden in kidneys were evaluated in different groups of mice. […] Error bars, s.e.m.

[10] = system: K. pneumoniae ATCC 700603 strain; assay: CFU assay against K. pneumoniae; type: cell-based, Klebsiella pneumoniae
[11] = system: M. furfur 101 strain; assay: CFU assay against M. furfur; type: cell-based, Malassezia furfur
Experimental: After the incubation period, the cell suspensions were plated on Sabouraud dextrose agar added with Tween 20 (1%), then incubated at 30° C. and observed for CFU enumeration after 72 hours.
After the incubation period, the cell suspensions have been plated on Sabouraud dextrose agar added with Tween 20 (1%), then incubated at 30° C. and observed for CFU enumeration after 72 hours.

[12] = peptide 100 micrograms/ml, 5 hours 37° C.

**Q.** What does the source list for “NAVSLTCLVK [asd Q2A N10K, N A V S L T C L V K]”?
**A.** IL-6 production by human monocytes [1]: strong enhancement; EC50 ([2]; SC5314, 6 h): 2300 nM; EC50asd/EC50N10K ([2]; Table IX): 2.30

**Q.** “G Q Y G N L W F A Y (GQYGNLWFAY) [MoA VHCDR3, CDR3 fragment of the H chain of a murine IgM mAb directed to difucosyl human blood group A substance]” was tested. Which Activity ([3]; Table III, in vitro) did it give?
**A.** cidal

**Q.** And the “bactericidal activity (CFU)” value [3, 12]?
**A.** showed bactericidal activity

**Q.** What about the Activity ([4]; Table III, in vitro) of the same sequence?
**A.** cidal

**Q.** And the “bactericidal activity (CFU)” value [4, 12]?
**A.** showed bactericidal activity

**Q.** What about the Activity ([5]; Table III, in vitro) of the same sequence?
**A.** cidal

**Q.** And the “fungicidal activity (CFU)” value ([5]; peptide 100 micrograms/ml, 18 hours 30° C.)?
**A.** showed fungicidal activity

**Q.** What about the “activity against C. albicans cells in vitro” value [6] of the same sequence?
**A.** ineffective

**Q.** And the Activity ([7]; Table III, in vitro)?
**A.** cidal

**Q.** And the “bactericidal activity (CFU)” value [7, 12]?
**A.** showed bactericidal activity

**Q.** What about the TLR-4 expression ([8]; 10 micrograms/ml) of the same sequence?
**A.** up-regulates TLR-4

**Q.** And the “Akt activation (phospho-Akt)” value ([8]; 10 micrograms/ml, 1 hr, Western blotting)?
**A.** induces Akt activation

**Q.** What about the “TNF-α production by PM” value ([8]; 10 micrograms/ml, ELISA) of the same sequence?
**A.** stimulate PM to produce TNF-α

**Q.** And the “TNF-α mRNA” value ([8]; 1 hr post stimulation, 10 micrograms/ml)?
**A.** detected

**Q.** What about the “Activity (Stimulation of TNF-α, IL-6)” value ([8]; Table III, in vitro, Immune cells) of the same sequence?
**A.** Stimulation

**Q.** What about the Activity ([9]; Table III, in vivo, Fungus, for MoAVHCDR3 the wrapped cell reads Indirectly cidal up regulation of TNF-α, TLR-4) of the same sequence?
**A.** Indirectly

**Q.** What about the “CFU recovery from kidneys” value ([9]; intraperitoneally 200 micrograms 4 hr before, 100 micrograms 1 and 2 days after infection, 5, 7 and 12 days after infection, versus negative control mice) of the same sequence?
**A.** impressive decrease

**Q.** And the “survival of infected mice” value ([9]; intraperitoneally 200 micrograms 4 hr before, 100 micrograms 1 and 2 days after infection, versus untreated or MoA VLCDR3 treated)?
**A.** significant increase in survival

**Q.** What about the Activity ([10]; Table III, in vitro) of the same sequence?
**A.** cidal

**Q.** What about the “bactericidal activity (CFU)” value [10, 12] of the same sequence?
**A.** showed bactericidal activity

**Q.** And the Activity ([11]; Table III, in vitro)?
**A.** cidal

**Q.** And the “fungicidal activity (CFU)” value ([11]; peptide 100 micrograms/ml, 6 hours 30° C.)?
**A.** showed fungicidal activity
